Measurements published in the supplement of paper PMC8149375.

What was measured:
Details in all cases: treatment: drug + dasatinib (fixed dose, not stated); 5 days
[1] = system: 769-P; test: GI50 of drug in presence of dasatinib; higher = less potent
Description: (§1)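 Primary HTS combination arm: 8 RCC cell lines treated with 8 doses (up to 10 uM) of each library drug plus a fixed dose of dasatinib (dose not stated) for 5 days; viability read by CellTiter-Glo and normalised to DMSO. GI50 was fitted with XLfit, AUC is the area under the dose-response curve, and minimum viability is the lowest fraction of DMSO viability across doses.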

[2] = system: 786-O; test: as above
Description: as §1

[3] = system: A498; test: as above
Description: as §1

[4] = system: ACHN; test: as above
Description: as §1

[5] = system: CAKI-1; test: as above
Description: as §1

[6] = system: SN12C; test: as above
Description: as §1

[7] = system: TK-10; test: as above
Description: as §1

[8] = system: UO-31; test: as above
Description: as §1

[9] = system: 769-P; test: minimum viability across doses, drug + dasatinib, relative to DMSO (fraction); higher = less growth inhibition
Description: as §1

[10] = system: 786-O; test: as above
Description: as §1

[11] = system: A498; test: as above
Description: as §1

[12] = system: ACHN; test: as above
Description: as §1

[13] = system: CAKI-1; test: as above
Description: as §1

[14] = system: SN12C; test: as above
Description: as §1

[15] = system: TK-10; test: as above
Description: as §1

[16] = system: UO-31; test: as above
Description: as §1

[17] = system: 769-P; test: AUC of dose-response viability curve, drug + dasatinib, normalised to DMSO (arbitrary (AUC of normalised viability)); higher = less growth inhibition
Description: as §1

[18] = system: 786-O; test: as above
Description: as §1

[19] = system: A498; test: as above
Description: as §1

[20] = system: ACHN; test: as above
Description: as §1

[21] = system: CAKI-1; test: as above
Description: as §1

[22] = system: SN12C; test: as above
Description: as §1

[23] = system: TK-10; test: as above
Description: as §1

[24] = system: UO-31; test: as above
Description: as §1

COc1cc2nccc(Oc3ccc(NC(=O)C4(C(=O)Nc5ccc(F)cc5)CC4)cc3)c2cc1OC [XL-184 free base (Cabozantinib)] + Cc1nc(Nc2ncc(C(=O)Nc3c(C)cccc3Cl)s2)cc(N2CCN(CCO)CC2)n1 [dasatinib]
GI50 of drug [1]: 2000 nM
GI50 of drug [2]: 29.5 nM
GI50 of drug [3]: 8990 nM
GI50 of drug [4]: 267 nM
GI50 of drug [5]: 193 nM
GI50 of drug [6]: 915 nM
GI50 of drug [7]: 2770 nM
GI50 of drug [8]: 1840 nM
minimum viability across doses [9]: 0.135
minimum viability across doses [10]: 0.25
minimum viability across doses [11]: 0.442
minimum viability across doses [12]: 0.0617
minimum viability across doses [13]: 0.0187
minimum viability across doses [14]: 0.213
minimum viability across doses [15]: 0.136
minimum viability across doses [16]: 0.0162
AUC of dose-response viability curve [17]: 2.07
AUC of dose-response viability curve [18]: 2.2
AUC of dose-response viability curve [19]: 3.34
AUC of dose-response viability curve [20]: 1.6
AUC of dose-response viability curve [21]: 1.76
AUC of dose-response viability curve [22]: 2.07
AUC of dose-response viability curve [23]: 2.33
AUC of dose-response viability curve [24]: 2.75

COCC[n+]1c2c(n(Cc3cnccn3)c1C)C(=O)c1ccccc1C2=O [YM155] + Cc1nc(Nc2ncc(C(=O)Nc3c(C)cccc3Cl)s2)cc(N2CCN(CCO)CC2)n1 [dasatinib]
GI50 of drug [1]: 10.7 nM
GI50 of drug [2]: > 10000 nM
GI50 of drug [3]: 8.38 nM
GI50 of drug [4]: 5.43 nM
GI50 of drug [5]: 4.86 nM
GI50 of drug [6]: 8.39 nM
GI50 of drug [7]: 14.4 nM
GI50 of drug [8]: 45 nM
minimum viability across doses [9]: 0.00674
minimum viability across doses [10]: 0.00497
minimum viability across doses [11]: 0.00896
minimum viability across doses [12]: 0.00126
minimum viability across doses [13]: 0.00438
minimum viability across doses [14]: 0.00231
minimum viability across doses [15]: 0.0206
minimum viability across doses [16]: 0.00698
AUC of dose-response viability curve [17]: 0.63
AUC of dose-response viability curve [18]: 0.302
AUC of dose-response viability curve [19]: 0.476
AUC of dose-response viability curve [20]: 0.479
AUC of dose-response viability curve [21]: 0.385
AUC of dose-response viability curve [22]: 0.503
AUC of dose-response viability curve [23]: 0.933
AUC of dose-response viability curve [24]: 1.3

FC(F)c1nc2ccccc2n1-c1nc(N2CCOCC2)nc(N2CCOCC2)n1 [ZSTK474] + Cc1nc(Nc2ncc(C(=O)Nc3c(C)cccc3Cl)s2)cc(N2CCN(CCO)CC2)n1 [dasatinib]
GI50 of drug [1]: 169 nM
GI50 of drug [2]: 118 nM
GI50 of drug [3]: 1090 nM
GI50 of drug [4]: 102 nM
GI50 of drug [5]: 44.5 nM
GI50 of drug [6]: 420 nM
GI50 of drug [7]: 328 nM
GI50 of drug [8]: 194 nM
minimum viability across doses [9]: 0.0686
minimum viability across doses [10]: 0.00535
minimum viability across doses [11]: 0.0549
minimum viability across doses [12]: 0.0709
minimum viability across doses [13]: 0.0415
minimum viability across doses [14]: 0.159
minimum viability across doses [15]: 0.115
minimum viability across doses [16]: 0.00787
AUC of dose-response viability curve [17]: 1.61
AUC of dose-response viability curve [18]: 1.61
AUC of dose-response viability curve [19]: 2.35
AUC of dose-response viability curve [20]: 1.45
AUC of dose-response viability curve [21]: 1.37
AUC of dose-response viability curve [22]: 1.99
AUC of dose-response viability curve [23]: 1.97
AUC of dose-response viability curve [24]: 1.73

O=C(O)c1ccc2c(c1)nc(Nc1cccc(Cl)c1)c1ccncc12 [cx-4945 (Silmitasertib)] + Cc1nc(Nc2ncc(C(=O)Nc3c(C)cccc3Cl)s2)cc(N2CCN(CCO)CC2)n1 [dasatinib]
GI50 of drug [1]: > 10000 nM
GI50 of drug [2]: < 3 nM
GI50 of drug [3]: > 10000 nM
GI50 of drug [4]: 3240 nM
GI50 of drug [5]: 1270 nM
GI50 of drug [6]: > 10000 nM
GI50 of drug [7]: > 10000 nM
GI50 of drug [8]: > 10000 nM
minimum viability across doses [9]: 0.595
minimum viability across doses [10]: 0.313
minimum viability across doses [11]: 0.47
minimum viability across doses [12]: 0.169
minimum viability across doses [13]: 0.033
minimum viability across doses [14]: 0.642
minimum viability across doses [15]: 0.645
minimum viability across doses [16]: 0.865
AUC of dose-response viability curve [17]: 2.44
AUC of dose-response viability curve [18]: 1.99
AUC of dose-response viability curve [19]: 2.87
AUC of dose-response viability curve [20]: 2.01
AUC of dose-response viability curve [21]: 2.12
AUC of dose-response viability curve [22]: 2.52
AUC of dose-response viability curve [23]: 2.54
AUC of dose-response viability curve [24]: 4.08
